From ChEMBL document CHEMBL1629661, “Carbapenem resistance among Pseudomonas aeruginosa strains from India: evidence for nationwide endemicity of multiple metallo-beta-lactamase clones (VIM-2, -5, -6, and -11 and the newly characterized VIM-18)” (2009)
Converted amounts (≈) assume the structure as drawn.

How the values were obtained:
Type in all cases: functional
[1] = system: Pseudomonas aeruginosa; assay: Antimicrobial activity against Pseudomonas aeruginosa isolate 243-31C expressing beta-lactamase VIM-18 isolated from sputum of patient by broth microdilution method
[2] = system: Escherichia coli; assay: Antimicrobial activity against Escherichia coli harboring beta-lactamase VIM-18 by Etest
[3] = system: Escherichia coli; assay: Antimicrobial activity against Escherichia coli harboring beta-lactamase VIM-2 by Etest
[4] = system: Escherichia coli; assay: Antimicrobial activity against Escherichia coli harboring plasmid pPCRScript by Etest
[5] = system: Escherichia coli; assay: Ratio of MIC for Escherichia coli harboring beta-lactamase VIM-2 to MIC for Escherichia coli harboring beta-lactamase VIM-18
[6] = system: Pseudomonas aeruginosa; assay: Antimicrobial activity against Pseudomonas aeruginosa isolate 243-31C expressing beta-lactamase VIM-18 isolated from sputum of patient by broth microdilution method in presence of beta-lactamase inhibitor Tazobactam

Compound | MIC [1] [µg/mL] | MIC [2] [µg/mL] | MIC [3] [µg/mL] | MIC [4] [µg/mL] | Ratio [5] | MIC [6] [µg/mL]
NC[C@H]1O[C@H](O[C@H]2[C@H](O)[C@@H](O[C@H]3O[C@H](CO)[C@@H](O)[C@H](N)[C@H]3O)[C@H](N)C[C@@H]2N)[C@H](N)C[C@@H]1O [TOBRAMYCIN] | > 16 |  |  |  |  | 
CO[C@@]1(NC(=O)Cc2cccs2)C(=O)N2C(C(=O)O)=C(COC(N)=O)CS[C@@H]21 [CEFOXITIN] | > 16 | 8 (≈ 18.7 µM) | > 256 | 4 (≈ 9.36 µM) | >6 | 
C[C@@H](O)[C@H]1C(=O)N2C(C(=O)O)=C(S[C@@H]3CN[C@H](C(=O)N(C)C)C3)[C@H](C)[C@H]12 [MEROPENEM] | 8 (≈ 20.9 µM) | 0.064 (≈ 0.167 µM) | 0.125 (≈ 0.326 µM) | 0.032 (≈ 0.0834 µM) |  | 
C[C@@H](O)[C@H]1C(=O)N2C(C(=O)O)=C(SCCNC=N)C[C@H]12 [IMIPENEM ANHYDROUS] | 8 (≈ 26.7 µM) |  | 0.5 (≈ 1.67 µM) |  |  | 
CO/N=C(\C(=O)N[C@@H]1C(=O)N2C(C(=O)[O-])=C(C[N+]3(C)CCCC3)CS[C@H]12)c1csc(N)n1 | > 16 |  | 0.5 (≈ 1.04 µM) | 0.032 (≈ 0.0666 µM) |  | 
GENTAMICIN | 8 |  |  |  |  | 
NCC[C@H](O)C(=O)N[C@@H]1C[C@H](N)[C@@H](O[C@H]2O[C@H](CN)[C@@H](O)[C@H](O)[C@H]2O)[C@H](O)[C@H]1O[C@H]1O[C@H](CO)[C@@H](O)[C@H](N)[C@H]1O [AMIKACIN] | > 32 |  |  |  |  | 
Cc1nnc(SCC2=C(C(=O)O)N3C(=O)[C@@H](NC(=O)Cn4cnnn4)[C@H]3SC2)s1 [CEFAZOLIN] | > 16 | 32 (≈ 70.4 µM) | > 256 | 2 (≈ 4.4 µM) | 4 | 
CC(C)(O/N=C(\C(=O)N[C@@H]1C(=O)N2C(C(=O)[O-])=C(C[n+]3ccccc3)CS[C@H]12)c1csc(N)n1)C(=O)O [CEFTAZIDIME] | > 16 | 16 (≈ 29.3 µM) | 4 (≈ 7.32 µM) | 0.125 (≈ 0.229 µM) |  | 
C[C@H]1[C@H](NC(=O)/C(=N\OC(C)(C)C(=O)O)c2csc(N)n2)C(=O)N1S(=O)(=O)O [AZTREONAM] | 16 (≈ 36.7 µM) | 0.032 (≈ 0.0735 µM) | 0.032 (≈ 0.0735 µM) |  |  | 
POLYMYXIN B | 1 |  |  |  |  | 
CN(C)[C@@H]1C(O)=C(C(N)=O)C(=O)[C@@]2(O)C(O)=C3C(=O)c4c(O)cccc4[C@@](C)(O)[C@H]3C[C@@H]12 [TETRACYCLINE] | > 8 |  |  |  |  | 
O=C(O)c1cn(C2CC2)c2cc(N3CCNCC3)c(F)cc2c1=O [CIPROFLOXACIN] | 0.06 (≈ 0.181 µM) |  |  |  |  | 
CO/N=C(\C(=O)N[C@@H]1C(=O)N2C(C(=O)O)=C(COC(C)=O)CS[C@H]12)c1csc(N)n1 [CEFOTAXIME] |  | 2 (≈ 4.39 µM) | 4 (≈ 8.78 µM) | 0.064 (≈ 0.141 µM) |  | 
CO/N=C(\C(=O)N[C@@H]1C(=O)N2C(C(=O)O)=C(CSc3nc(=O)c(O)nn3C)CS[C@H]12)c1csc(N)n1 [CEFTRIAXONE] | > 32 |  |  |  |  | 
C[C@@H](O)[C@H]1C(=O)N2C(C(=O)O)=C(S[C@@H]3CN[C@H](C(=O)Nc4cccc(C(=O)O)c4)C3)[C@H](C)[C@H]12 | > 8 | 0.016 (≈ 0.0336 µM) | 0.25 (≈ 0.526 µM) | 0.006 (≈ 0.0126 µM) | 9 | 
C[C@@H](O)[C@H]1C(=O)N2C(C(=O)O)=C(S[C@@H]3CN[C@H](CNS(N)(=O)=O)C3)[C@H](C)[C@H]12 [DORIPENEM] | 4 (≈ 9.51 µM) |  |  |  |  | 
CC1(C)S[C@@H]2[C@H](NC(=O)[C@H](N)c3ccccc3)C(=O)N2[C@H]1C(=O)O [AMPICILLIN] | > 16 | 64 (≈ 183 µM) | > 256 | 4 (≈ 11.4 µM) |  | 
CCN1CCN(C(=O)N[C@@H](C(=O)N[C@@H]2C(=O)N3[C@@H]2SC(C)(C)[C@@H]3C(=O)O)c2ccccc2)C(=O)C1=O [PIPERACILLIN] | > 64 | 8 (≈ 15.5 µM) | 4 (≈ 7.73 µM) | 2 (≈ 3.86 µM) |  | > 64
